The source made the active and inactive calls.
Columns and labels:
[1] = molecular target: Metabotropic glutamate receptor 3 (Rattus norvegicus, UniProt P31422); assay: inhibition of rat mGlu3 glutamate signaling – HEK/GIRK cells, thallium flux, dose response (AID 651839); assay type: functional
[2] = molecular target: T1, Replicative DNA helicase DnaB (Mycobacterium tuberculosis, UniProt P9WMR3); assay: DnaB intein splicing inhibitors, dose response, biochemical, cell-free fluorescence (AID 449749); assay type: functional
T1 sequence (P9WMR3 whole entry): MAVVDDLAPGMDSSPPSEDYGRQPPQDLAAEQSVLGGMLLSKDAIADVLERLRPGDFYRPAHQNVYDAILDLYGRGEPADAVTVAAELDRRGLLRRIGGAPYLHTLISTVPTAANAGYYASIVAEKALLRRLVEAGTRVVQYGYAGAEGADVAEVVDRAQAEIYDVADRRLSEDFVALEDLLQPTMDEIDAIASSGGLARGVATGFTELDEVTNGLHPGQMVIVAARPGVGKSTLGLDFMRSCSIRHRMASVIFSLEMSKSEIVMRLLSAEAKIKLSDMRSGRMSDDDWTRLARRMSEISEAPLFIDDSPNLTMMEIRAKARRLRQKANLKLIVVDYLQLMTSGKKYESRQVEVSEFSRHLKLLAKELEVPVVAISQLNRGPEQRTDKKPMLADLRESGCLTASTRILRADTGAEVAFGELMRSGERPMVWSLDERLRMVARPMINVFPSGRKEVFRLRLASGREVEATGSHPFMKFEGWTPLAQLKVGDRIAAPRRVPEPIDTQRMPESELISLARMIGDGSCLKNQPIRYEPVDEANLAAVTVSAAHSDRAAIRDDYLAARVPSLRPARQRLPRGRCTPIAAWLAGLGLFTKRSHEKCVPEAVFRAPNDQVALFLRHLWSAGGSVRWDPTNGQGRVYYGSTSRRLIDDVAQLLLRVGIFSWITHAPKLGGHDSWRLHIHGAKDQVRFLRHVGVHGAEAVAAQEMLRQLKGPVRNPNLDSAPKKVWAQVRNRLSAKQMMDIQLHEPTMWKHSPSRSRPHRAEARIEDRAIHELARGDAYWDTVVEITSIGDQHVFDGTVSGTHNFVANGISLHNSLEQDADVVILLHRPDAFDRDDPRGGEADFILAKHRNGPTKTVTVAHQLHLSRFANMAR

Genome polyprotein = Genome polyprotein (dengue virus type 2, UniProt P29990); assay: flavivirus cap methylation enzyme inhibition – biochemical, confirmation dose response, primary screen (AID 588689); assay type: functional
[3] = molecular target: Tyrosyl-DNA phosphodiesterase 2 (Homo sapiens, UniProt O95551); assay: potency against TDP2 phosphodiesterase activity – biochemical, epi absorbance, IC50, dose response (AID 743297)
Protein RecA = molecular target: T2, Protein RecA (Mycobacterium tuberculosis, UniProt P9WHJ3); assay: Fluorescence Cell-Free Homogeneous Dose Retest to Identify Inhibitors of RecA-Intein Splicing Activity. [Related pubchem assays (depositor defined):AID2097, AID2223, AID489010, AID492950]; assay type: functional
T2 sequence (P9WHJ3 whole entry): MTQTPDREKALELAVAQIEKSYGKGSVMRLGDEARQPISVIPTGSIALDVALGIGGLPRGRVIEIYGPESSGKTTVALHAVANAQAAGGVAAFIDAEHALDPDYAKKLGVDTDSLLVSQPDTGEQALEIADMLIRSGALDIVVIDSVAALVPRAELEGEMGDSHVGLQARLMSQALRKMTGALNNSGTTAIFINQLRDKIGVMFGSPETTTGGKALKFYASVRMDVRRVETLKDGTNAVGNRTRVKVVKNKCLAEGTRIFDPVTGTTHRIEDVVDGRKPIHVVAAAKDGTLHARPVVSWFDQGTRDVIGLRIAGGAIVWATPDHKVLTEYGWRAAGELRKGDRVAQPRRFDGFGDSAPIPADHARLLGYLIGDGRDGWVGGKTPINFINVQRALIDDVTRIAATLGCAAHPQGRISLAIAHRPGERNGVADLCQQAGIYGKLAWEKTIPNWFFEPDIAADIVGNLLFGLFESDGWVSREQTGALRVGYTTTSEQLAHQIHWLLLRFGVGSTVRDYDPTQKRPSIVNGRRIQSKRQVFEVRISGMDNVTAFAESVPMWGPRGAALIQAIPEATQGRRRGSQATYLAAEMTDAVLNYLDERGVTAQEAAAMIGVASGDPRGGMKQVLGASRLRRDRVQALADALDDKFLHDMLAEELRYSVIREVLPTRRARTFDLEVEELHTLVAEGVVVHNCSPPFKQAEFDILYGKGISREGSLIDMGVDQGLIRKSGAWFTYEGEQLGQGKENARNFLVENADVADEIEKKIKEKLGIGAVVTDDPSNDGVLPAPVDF

[4] = molecular target: 1-phosphatidylinositol 4,5-bisphosphate phosphodiesterase beta-3 (Homo sapiens, UniProt Q01970); assay: Fluorescence-based biochemical high throughput dose response assay to identify inhibitors of phospholipase C isozymes (PLC-B3).
[5] = molecular target: 1-phosphatidylinositol 4,5-bisphosphate phosphodiesterase gamma-1 (Homo sapiens, UniProt P19174); assay: Counterscreen for inhibitors of phospholipase C isozymes (PLC-B3): Fluorescence-based biochemical high throughput dose response assay to identify inhibitors of phospholipase C isozymes (PLC-gamma1).
[6] = molecular target: NAD-dependent protein deacylase sirtuin-5, mitochondrial (Homo sapiens, UniProt Q9NXA8); assay: blockers of sirtuin-5 peptide desuccinylation – biochemical, fluorescence imaging, cherry-pick, set 6, dose response (AID 720597)
[7] = cytotoxicity in MITF-independent A375 cells – cell-based, CellTiter-Glo luminescence, dry powder, set 4, counter-screen for MITF inhibitor project, dose response (AID 624364); assay type: functional; details: A-375;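 also: A375 melanoma cells are MITF independent so this is a counter screen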
[8] = viability loss in MITF-independent A375 cells – cell-based, CellTiter-Glo luminescence, dry powder, set 2, counter-screen for MITF inhibitor project, dose response (AID 624489); assay type: functional; details: A-375;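 also: actives are compounds lowering A375 viability meaning general cytotoxicity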

Metabotropic glutamate receptor 3, sequence (P31422 whole entry): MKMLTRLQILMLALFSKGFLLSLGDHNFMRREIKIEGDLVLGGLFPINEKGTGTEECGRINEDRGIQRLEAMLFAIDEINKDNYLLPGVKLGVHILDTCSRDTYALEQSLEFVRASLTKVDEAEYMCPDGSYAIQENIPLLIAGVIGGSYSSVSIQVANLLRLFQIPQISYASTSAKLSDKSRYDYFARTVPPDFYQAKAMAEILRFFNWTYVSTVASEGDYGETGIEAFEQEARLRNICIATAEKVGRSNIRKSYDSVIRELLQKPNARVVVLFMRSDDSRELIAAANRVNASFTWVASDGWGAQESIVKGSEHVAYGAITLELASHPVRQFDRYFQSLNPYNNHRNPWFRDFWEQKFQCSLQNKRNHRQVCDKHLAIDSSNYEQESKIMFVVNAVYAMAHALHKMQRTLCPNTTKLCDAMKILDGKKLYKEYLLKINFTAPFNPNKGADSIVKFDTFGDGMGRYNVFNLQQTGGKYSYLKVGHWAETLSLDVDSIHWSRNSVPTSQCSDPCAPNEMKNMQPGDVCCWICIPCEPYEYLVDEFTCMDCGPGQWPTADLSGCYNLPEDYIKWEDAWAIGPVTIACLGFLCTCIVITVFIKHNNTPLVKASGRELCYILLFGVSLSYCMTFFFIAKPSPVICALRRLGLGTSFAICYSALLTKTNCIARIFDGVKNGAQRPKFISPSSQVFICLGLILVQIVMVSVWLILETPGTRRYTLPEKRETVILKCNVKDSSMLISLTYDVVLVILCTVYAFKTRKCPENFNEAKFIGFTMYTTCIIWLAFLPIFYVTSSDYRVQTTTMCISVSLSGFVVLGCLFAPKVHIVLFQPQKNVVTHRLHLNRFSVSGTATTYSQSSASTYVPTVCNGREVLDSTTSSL
NAD-dependent protein deacylase sirtuin-5, mitochondrial, sequence (Q9NXA8 whole entry): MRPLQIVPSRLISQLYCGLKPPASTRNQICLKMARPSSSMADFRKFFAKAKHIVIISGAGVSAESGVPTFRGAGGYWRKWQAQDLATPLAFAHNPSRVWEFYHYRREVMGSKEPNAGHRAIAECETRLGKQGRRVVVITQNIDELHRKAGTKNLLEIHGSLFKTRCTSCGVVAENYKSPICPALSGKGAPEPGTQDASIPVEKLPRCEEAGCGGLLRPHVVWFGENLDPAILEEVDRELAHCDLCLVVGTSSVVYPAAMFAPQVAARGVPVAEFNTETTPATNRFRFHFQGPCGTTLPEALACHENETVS
1-phosphatidylinositol 4,5-bisphosphate phosphodiesterase beta-3, sequence (Q01970 whole entry): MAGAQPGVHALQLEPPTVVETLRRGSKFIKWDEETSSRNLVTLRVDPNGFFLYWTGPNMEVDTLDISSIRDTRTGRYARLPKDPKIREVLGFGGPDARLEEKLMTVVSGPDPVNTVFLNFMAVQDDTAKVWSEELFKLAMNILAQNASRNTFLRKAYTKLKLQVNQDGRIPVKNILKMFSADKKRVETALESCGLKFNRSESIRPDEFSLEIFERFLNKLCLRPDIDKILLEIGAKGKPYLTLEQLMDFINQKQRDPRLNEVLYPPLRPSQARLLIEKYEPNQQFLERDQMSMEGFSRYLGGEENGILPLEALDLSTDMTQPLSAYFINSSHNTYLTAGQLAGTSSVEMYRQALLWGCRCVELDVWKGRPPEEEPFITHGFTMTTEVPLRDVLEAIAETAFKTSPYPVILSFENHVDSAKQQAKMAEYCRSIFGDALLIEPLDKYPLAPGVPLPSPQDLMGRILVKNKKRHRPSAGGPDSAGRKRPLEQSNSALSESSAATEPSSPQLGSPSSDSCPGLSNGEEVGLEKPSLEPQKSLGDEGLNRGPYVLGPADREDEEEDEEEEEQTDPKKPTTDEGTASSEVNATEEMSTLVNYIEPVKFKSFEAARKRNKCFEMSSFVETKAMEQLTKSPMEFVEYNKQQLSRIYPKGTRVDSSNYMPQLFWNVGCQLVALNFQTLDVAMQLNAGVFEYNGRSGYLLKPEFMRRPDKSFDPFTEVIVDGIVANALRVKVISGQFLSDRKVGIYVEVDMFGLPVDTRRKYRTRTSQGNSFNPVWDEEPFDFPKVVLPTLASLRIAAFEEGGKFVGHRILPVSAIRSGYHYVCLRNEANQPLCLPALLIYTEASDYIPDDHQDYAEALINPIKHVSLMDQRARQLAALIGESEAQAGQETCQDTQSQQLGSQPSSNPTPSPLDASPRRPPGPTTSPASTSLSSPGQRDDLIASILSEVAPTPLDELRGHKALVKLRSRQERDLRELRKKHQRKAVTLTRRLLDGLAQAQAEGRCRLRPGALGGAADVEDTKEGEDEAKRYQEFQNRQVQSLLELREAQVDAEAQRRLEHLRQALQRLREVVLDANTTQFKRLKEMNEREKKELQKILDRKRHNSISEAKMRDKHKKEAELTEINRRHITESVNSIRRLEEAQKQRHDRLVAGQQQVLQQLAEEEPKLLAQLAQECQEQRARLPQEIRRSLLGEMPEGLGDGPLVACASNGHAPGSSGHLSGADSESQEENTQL
Tyrosyl-DNA phosphodiesterase 2, sequence (O95551 whole entry): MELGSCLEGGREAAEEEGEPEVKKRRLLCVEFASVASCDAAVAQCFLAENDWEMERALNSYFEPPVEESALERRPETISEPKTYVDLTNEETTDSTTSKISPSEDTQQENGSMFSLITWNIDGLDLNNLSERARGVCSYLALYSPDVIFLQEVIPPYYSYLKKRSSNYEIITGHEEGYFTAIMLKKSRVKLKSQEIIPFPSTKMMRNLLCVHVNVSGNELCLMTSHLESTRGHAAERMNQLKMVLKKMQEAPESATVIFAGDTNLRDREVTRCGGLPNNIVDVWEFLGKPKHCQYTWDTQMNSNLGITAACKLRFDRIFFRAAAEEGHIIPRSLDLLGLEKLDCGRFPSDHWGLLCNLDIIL
1-phosphatidylinositol 4,5-bisphosphate phosphodiesterase gamma-1, sequence (P19174 whole entry): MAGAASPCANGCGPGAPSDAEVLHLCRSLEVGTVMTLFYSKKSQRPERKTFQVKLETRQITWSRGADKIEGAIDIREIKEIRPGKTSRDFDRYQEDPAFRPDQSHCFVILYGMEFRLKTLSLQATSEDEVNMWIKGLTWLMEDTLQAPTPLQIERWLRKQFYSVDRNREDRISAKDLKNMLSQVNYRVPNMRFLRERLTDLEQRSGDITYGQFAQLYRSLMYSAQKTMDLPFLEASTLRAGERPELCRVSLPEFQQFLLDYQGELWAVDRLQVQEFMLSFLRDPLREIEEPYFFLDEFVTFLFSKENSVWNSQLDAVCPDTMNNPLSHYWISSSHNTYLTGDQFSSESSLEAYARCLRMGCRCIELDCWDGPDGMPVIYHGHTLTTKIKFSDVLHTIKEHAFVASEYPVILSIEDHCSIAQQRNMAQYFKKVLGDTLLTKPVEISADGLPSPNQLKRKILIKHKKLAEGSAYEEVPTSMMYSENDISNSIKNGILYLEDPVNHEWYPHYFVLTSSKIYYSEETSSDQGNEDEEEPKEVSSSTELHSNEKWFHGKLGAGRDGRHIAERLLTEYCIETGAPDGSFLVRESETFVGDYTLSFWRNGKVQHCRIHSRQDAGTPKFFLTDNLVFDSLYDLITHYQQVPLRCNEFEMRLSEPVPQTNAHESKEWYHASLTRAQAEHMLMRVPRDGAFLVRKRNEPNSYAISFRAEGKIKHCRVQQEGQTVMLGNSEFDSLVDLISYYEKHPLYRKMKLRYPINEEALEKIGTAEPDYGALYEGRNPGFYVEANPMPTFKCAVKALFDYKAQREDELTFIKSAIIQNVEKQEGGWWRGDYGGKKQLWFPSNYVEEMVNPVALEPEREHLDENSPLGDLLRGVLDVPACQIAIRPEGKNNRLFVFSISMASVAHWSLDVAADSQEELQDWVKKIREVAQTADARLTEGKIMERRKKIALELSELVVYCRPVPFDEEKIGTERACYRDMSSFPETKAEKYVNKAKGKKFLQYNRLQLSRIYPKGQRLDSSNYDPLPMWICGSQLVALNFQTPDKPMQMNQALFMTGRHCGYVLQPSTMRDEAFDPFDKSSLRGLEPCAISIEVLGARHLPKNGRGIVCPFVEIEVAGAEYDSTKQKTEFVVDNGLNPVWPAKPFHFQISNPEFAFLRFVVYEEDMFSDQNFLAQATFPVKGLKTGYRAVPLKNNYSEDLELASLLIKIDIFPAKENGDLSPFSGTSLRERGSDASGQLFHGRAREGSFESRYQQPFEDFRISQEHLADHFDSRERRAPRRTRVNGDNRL
Genome polyprotein, sequence (P29990 2492-3391 limits assumed): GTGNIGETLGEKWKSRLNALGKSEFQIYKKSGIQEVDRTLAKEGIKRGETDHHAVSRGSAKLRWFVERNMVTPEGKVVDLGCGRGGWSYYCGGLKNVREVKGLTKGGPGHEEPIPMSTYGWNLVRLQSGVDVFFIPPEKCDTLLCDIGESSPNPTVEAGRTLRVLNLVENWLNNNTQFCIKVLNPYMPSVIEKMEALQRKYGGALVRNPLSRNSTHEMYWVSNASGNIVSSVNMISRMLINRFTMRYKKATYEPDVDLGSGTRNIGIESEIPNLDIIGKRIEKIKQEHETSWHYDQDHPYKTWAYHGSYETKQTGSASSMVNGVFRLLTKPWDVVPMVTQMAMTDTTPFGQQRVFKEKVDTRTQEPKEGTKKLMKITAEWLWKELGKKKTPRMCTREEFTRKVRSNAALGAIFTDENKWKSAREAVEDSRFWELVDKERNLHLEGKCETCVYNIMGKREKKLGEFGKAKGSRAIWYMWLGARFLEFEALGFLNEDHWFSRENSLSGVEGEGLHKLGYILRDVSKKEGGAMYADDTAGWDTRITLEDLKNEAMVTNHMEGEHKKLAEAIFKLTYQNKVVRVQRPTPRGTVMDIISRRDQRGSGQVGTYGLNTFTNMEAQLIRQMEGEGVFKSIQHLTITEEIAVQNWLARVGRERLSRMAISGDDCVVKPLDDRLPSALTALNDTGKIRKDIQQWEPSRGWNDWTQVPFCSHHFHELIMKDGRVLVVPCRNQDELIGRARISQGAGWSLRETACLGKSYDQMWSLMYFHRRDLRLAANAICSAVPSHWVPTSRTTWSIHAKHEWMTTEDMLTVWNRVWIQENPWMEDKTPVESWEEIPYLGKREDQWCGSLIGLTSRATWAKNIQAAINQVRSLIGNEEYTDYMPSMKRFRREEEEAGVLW

COc1ccc(C#Cc2ccc(C(=O)N3CCCC(OC)C3)cc2)cc1 (centres undefined)
IC50 [1]: 7.15 µM (active)

COc1ccc(C(c2c(C)[nH]n(-c3ccccc3)c2=O)c2c(C)[nH]n(-c3ccccc3)c2=O)cc1OC
AC50 [2]: 1.22 µM (active) | IC50 (Genome polyprotein): 35.9 µM (active) | IC50 [3]: 95.2 µM (inactive) | EC50 (Protein RecA): 0.688 µM (active)

Cc1ccc(OCCn2c(CCNC(=O)C3CCCCCC3)nc3ccccc32)cc1
IC50 [4]: > 123 µM (inactive) | IC50 [5]: > 123 µM (inactive)

C[C@H]1CN([C@@H](C)CO)C(=O)c2cccc(NC(=O)NC3CCCCC3)c2O[C@@H]1CN(C)Cc1ccc(C(=O)O)cc1
AC50 [6]: 22.8 µM (active)

C[C@@H]1CN([C@@H](C)CO)C(=O)c2cc(NS(=O)(=O)c3ccccc3)ccc2O[C@@H]1CN(C)CC1CCCCC1
AC50 [6]: > 30 µM (inactive)

O=C(c1ccc2cc(-c3cccc(OCc4ccccc4)c3)ccc2c1)N1CCCC(CO)C1 (centres undefined)
IC50 [1]: 1.08 µM (inactive)

O=C1C(Nc2ccccc2)=C(NS(=O)(=O)c2ccccc2[N+](=O)[O-])C(=O)c2ccccc21
AC50 [7]: > 70 µM (inactive) | AC50 [8]: > 70 µM (inactive)

COc1ccc(C2=C(NC(=O)c3ccc(Cl)cc3)C(=O)c3ccccc3C2=O)cc1
AC50 [7]: 35.3 µM (active) | AC50 [8]: 18.2 µM (active)

— ChEMBL document CHEMBL1201862, “PubChem BioAssay data set” (2004)
